In ChEMBL document CHEMBL4118053, “Antimicrobial Spirotetronate Metabolites from Marine-Derived Micromonospora harpali SCSIO GJ089” (2017):
≈ marks a conversion by molar mass, not a printed value.

Experiments:
Assay type in all cases: functional
Enterococcus faecalis = experiment: Antibacterial activity against Enterococcus faecalis ATCC 29212 by CLSI method
Bacillus subtilis = experiment: Antibacterial activity against Bacillus subtilis BS01 by CLSI method
Staphylococcus aureus [1] = experiment: Antibacterial activity against methicillin-resistant Staphylococcus aureus isolate shhs-A1 by CLSI method
Bacillus thuringiensis = experiment: Antibacterial activity against Bacillus thuringiensis BT01 by CLSI method
Staphylococcus aureus [2] = experiment: Antibacterial activity against Staphylococcus aureus ATCC 29213 by CLSI method

SMILES | MIC (Enterococcus faecalis) | MIC (Bacillus subtilis) | MIC (Staphylococcus aureus [1]) | MIC (Bacillus thuringiensis) | MIC (Staphylococcus aureus [2])
COC(=O)N[C@H]1[C@@H](C)O[C@@H](O[C@H]2C/C=C(\C)[C@@H]3C=C[C@@H]4[C@@H](O[C@H]5C[C@@H](O[C@H]6CC[C@@H](O[C@@H]7C[C@@H](O)[C@@H](O[C@H]8CC[C@@H](O)[C@H](C)O8)[C@H](C)O7)[C@H](C)O6)[C@@H](OC(C)=O)[C@H](C)O5)[C@@H](C)C[C@H](C)[C@H]4[C@]3(C)C(=O)C3=C(O)[C@@]4(CC(/C=C/C(C)=O)=C[C@H](O)[C@H]4/C=C/2C)OC3=O)C[C@]1(C)N | > 128 µg/mL | 2 µg/mL (≈ 1.51 µM) | > 128 µg/mL | 1 µg/mL (≈ 0.756 µM) | > 128 µg/mL
C/C1=C\[C@@H]2C=C[C@H](C)C[C@]23OC(=O)C(=C3O)C(=O)[C@@]2(C)[C@H]3[C@H](C=C[C@H]2/C(C)=C/C[C@@H]1O)[C@@H](O)[C@](C)(O)C[C@@H]3C | > 128 µg/mL | > 128 µg/mL | > 128 µg/mL | > 128 µg/mL | > 128 µg/mL
COC(=O)N[C@H]1[C@@H](C)O[C@@H](O[C@H]2C/C=C(\C)[C@@H]3C=C[C@@H]4[C@@H](O[C@H]5C[C@@H](O[C@H]6CC[C@@H](O[C@@H]7C[C@@H](O)[C@@H](O)[C@H](C)O7)[C@H](C)O6)[C@@H](OC(C)=O)[C@H](C)O5)[C@@H](C)C[C@H](C)[C@H]4[C@]3(C)C(=O)C3=C(O)[C@@]4(CC(C=O)=C[C@H](O)[C@H]4/C=C/2C)OC3=O)C[C@]1(C)[N+](=O)[O-] | 64 µg/mL (≈ 53.4 µM) | 0.063 µg/mL (≈ 0.0525 µM) | 32 µg/mL (≈ 26.7 µM) | 0.063 µg/mL (≈ 0.0525 µM) | 32 µg/mL (≈ 26.7 µM)
COC(=O)N[C@H]1[C@@H](C)O[C@@H](O[C@H]2C/C=C(\C)[C@@H]3C=C[C@@H]4[C@@H](O[C@H]5C[C@@H](O[C@H]6C[C@@H](O)[C@@H](O[C@@H]7C[C@@H](O)[C@@H](O)[C@H](C)O7)[C@H](C)O6)[C@@H](OC(C)=O)[C@H](C)O5)[C@@H](C)C[C@H](C)[C@H]4[C@]3(C)C(=O)C3=C(O)[C@@]4(CC(/C=C/C(C)=O)=C[C@H](O)[C@H]4/C=C/2C)OC3=O)C[C@]1(C)N | > 128 µg/mL | 8 µg/mL (≈ 6.53 µM) | > 128 µg/mL | 4 µg/mL (≈ 3.26 µM) | > 128 µg/mL
COC(=O)N[C@H]1[C@@H](C)O[C@@H](O[C@H]2C/C=C(\C)[C@@H]3C=C[C@@H]4[C@@H](O[C@H]5C[C@@H](O[C@H]6C[C@@H](O)[C@@H](O[C@@H]7C[C@@H](O)[C@@H](O)[C@H](C)O7)[C@H](C)O6)[C@@H](OC(C)=O)[C@H](C)O5)[C@@H](C)C[C@H](C)[C@H]4[C@]3(C)C(=O)C3=C(O)[C@@]4(CC(/C=C/C(C)=O)=C[C@H](O)[C@H]4/C=C/2C)OC3=O)C[C@]1(C)[N+](=O)[O-] | 128 µg/mL (≈ 102 µM) | 0.5 µg/mL (≈ 0.398 µM) | > 128 µg/mL | 0.25 µg/mL (≈ 0.199 µM) | > 128 µg/mL
COC(=O)N[C@H]1[C@@H](C)O[C@@H](O[C@H]2C/C=C(\C)[C@@H]3C=C[C@@H]4[C@@H](O[C@H]5C[C@@H](O[C@H]6CC[C@@H](O[C@@H]7C[C@@H](O)[C@@H](O[C@H]8CC[C@@H](O)[C@H](C)O8)[C@H](C)O7)[C@H](C)O6)[C@@H](OC(C)=O)[C@H](C)O5)[C@@H](C)C[C@H](C)[C@H]4[C@]3(C)C(=O)C3=C(O)[C@@]4(CC(/C=C/C(C)=O)=C[C@H](O)[C@H]4/C=C/2C)OC3=O)C[C@]1(C)[N+](=O)[O-] | 64 µg/mL (≈ 47.3 µM) | 0.03 µg/mL (≈ 0.0222 µM) | 32 µg/mL (≈ 23.6 µM) | 0.016 µg/mL (≈ 0.0118 µM) | 32 µg/mL (≈ 23.6 µM)
COC(=O)N[C@H]1[C@@H](C)O[C@@H](O[C@H]2C/C=C(\C)[C@@H]3C=C[C@@H]4[C@@H](O[C@H]5C[C@@H](O[C@H]6CC[C@@H](O[C@@H]7C[C@@H](O)[C@@H](O[C@H]8CC[C@@H](O)[C@H](C)O8)[C@H](C)O7)[C@H](C)O6)[C@@H](OC(C)=O)[C@H](C)O5)[C@@H](C)C[C@H](C)[C@H]4[C@]3(C)C(=O)C3=C(O)[C@@]4(CC(C=O)=C[C@H](O)[C@H]4/C=C/2C)OC3=O)C[C@]1(C)[N+](=O)[O-] | 64 µg/mL (≈ 48.7 µM) | 0.03 µg/mL (≈ 0.0228 µM) | 32 µg/mL (≈ 24.4 µM) | 0.016 µg/mL (≈ 0.0122 µM) | 32 µg/mL (≈ 24.4 µM)
COC(=O)N[C@H]1[C@@H](C)O[C@@H](O[C@H]2C/C=C(\C)[C@@H]3C=C[C@@H]4[C@@H](O[C@H]5C[C@@H](O[C@H]6CC[C@@H](O[C@@H]7C[C@@H](O)[C@@H](O)[C@H](C)O7)[C@H](C)O6)[C@@H](OC(C)=O)[C@H](C)O5)[C@@H](C)C[C@H](C)[C@H]4[C@]3(C)C(=O)C3=C(O)[C@@]4(CC(/C=C/C(C)=O)=C[C@H](O)[C@H]4/C=C/2C)OC3=O)C[C@]1(C)N | > 128 µg/mL | 2 µg/mL (≈ 1.65 µM) | > 128 µg/mL | 1 µg/mL (≈ 0.827 µM) | 128 µg/mL (≈ 106 µM)
COC(=O)N[C@H]1[C@@H](C)O[C@@H](O[C@H]2C/C=C(\C)[C@@H]3C=C[C@@H]4[C@@H](O[C@H]5C[C@@H](O[C@H]6CC[C@@H](O[C@@H]7C[C@@H](O)[C@@H](O)[C@H](C)O7)[C@H](C)O6)[C@@H](OC(C)=O)[C@H](C)O5)[C@@H](C)C[C@H](C)[C@H]4[C@]3(C)C(=O)C3=C(O)[C@@]4(CC(/C=C/C(C)=O)=C[C@H](O)[C@H]4/C=C/2C)OC3=O)C[C@]1(C)[N+](=O)[O-] | 64 µg/mL (≈ 51.6 µM) | 0.13 µg/mL (≈ 0.105 µM) | 32 µg/mL (≈ 25.8 µM) | 0.063 µg/mL (≈ 0.0508 µM) | 32 µg/mL (≈ 25.8 µM)
C/C1=C\[C@@H]2C=C[C@H](C)C[C@]23OC(=O)C(=C3O)C(=O)[C@@]2(C)[C@H]3[C@H](C=C[C@H]2/C(C)=C/C[C@@H]1O)[C@@H](O)[C@@H](C)C[C@@H]3C | 128 µg/mL (≈ 245 µM) | 64 µg/mL (≈ 122 µM) | 128 µg/mL (≈ 245 µM) | 64 µg/mL (≈ 122 µM) | 128 µg/mL (≈ 245 µM)
COC(=O)N[C@H]1[C@@H](C)O[C@@H](O[C@H]2C/C=C(\C)[C@@H]3C=C[C@@H]4[C@@H](O[C@H]5C[C@@H](O[C@H]6CC[C@@H](O[C@@H]7C[C@@H](O)[C@@H](O[C@H]8CC[C@@H](O)[C@H](C)O8)[C@H](C)O7)[C@H](C)O6)[C@@H](OC(C)=O)[C@H](C)O5)[C@@H](C)C[C@H](C)[C@H]4[C@]3(C)C(=O)C3=C(O)[C@@]4(CC(C=O)=C[C@H](O)[C@H]4/C=C/2C)OC3=O)C[C@]1(C)N | > 128 µg/mL | 2 µg/mL (≈ 1.56 µM) | > 128 µg/mL | 1 µg/mL (≈ 0.779 µM) | > 128 µg/mL
COC(=O)N[C@H]1[C@@H](C)O[C@@H](O[C@H]2C/C=C(\C)[C@@H]3C=C[C@@H]4[C@@H](O[C@H]5C[C@@H](O[C@H]6CC[C@@H](O[C@@H]7C[C@@H](O)[C@@H](O)[C@H](C)O7)[C@H](C)O6)[C@@H](OC(C)=O)[C@H](C)O5)[C@@H](C)C[C@H](C)[C@H]4[C@]3(C)C(=O)C3=C(O)[C@@]4(CC(C=O)=C[C@H](O)[C@H]4/C=C/2C)OC3=O)C[C@]1(C)N | > 128 µg/mL | 2 µg/mL (≈ 1.71 µM) | > 128 µg/mL | 1 µg/mL (≈ 0.855 µM) | > 128 µg/mL
CC1(C)S[C@@H]2[C@H](NC(=O)[C@H](N)c3ccccc3)C(=O)N2[C@H]1C(=O)O [AMPICILLIN] | 2 µg/mL (≈ 5.72 µM) | 0.25 µg/mL (≈ 0.715 µM) | 1 µg/mL (≈ 2.86 µM) | 32 µg/mL (≈ 91.6 µM) | 2 µg/mL (≈ 5.72 µM)
NC[C@H]1O[C@H](O[C@H]2[C@H](O)[C@@H](O[C@H]3O[C@H](CO)[C@@H](O)[C@H](N)[C@H]3O)[C@H](N)C[C@@H]2N)[C@H](O)[C@@H](O)[C@@H]1O [KANAMYCIN] | 32 µg/mL (≈ 66 µM) | 8 µg/mL (≈ 16.5 µM) | 64 µg/mL (≈ 132 µM) | 8 µg/mL (≈ 16.5 µM) | 16 µg/mL (≈ 33 µM)
CN[C@H](CC(C)C)C(=O)N[C@H]1C(=O)N[C@@H](CC(N)=O)C(=O)N[C@H]2C(=O)N[C@H]3C(=O)N[C@H](C(=O)N[C@H](C(=O)O)c4cc(O)cc(O)c4-c4cc3ccc4O)[C@H](O)c3ccc(c(Cl)c3)Oc3cc2cc(c3O[C@@H]2O[C@H](CO)[C@@H](O)[C@H](O)[C@H]2O[C@H]2C[C@](C)(N)[C@H](O)[C@H](C)O2)Oc2ccc(cc2Cl)[C@H]1O [VANCOMYCIN] |  | 1 µg/mL (≈ 0.69 µM) |  | 2 µg/mL (≈ 1.38 µM) | 
